Here are results for four compounds from ChEMBL document CHEMBL1201862, “PubChem BioAssay data set” (2004).

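In this assay, cells in 96-well plates receive the compound at five concentrations for 48 hours. Endpoints are linearly interpolated between the surrounding concentrations. At the GI50, growth is halved.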 Activity calls are given as the source filed them. Cut-off read from the data, not from the text of the source: active = GI50 up to about 1.1 µM and inactive = higher.

Common to all, as to test: DTP human tumour cell line panel, 48 h
Assay [1] deals with A498.
Assay [2] deals with ACHN.
Assay [3] has as its system EKVX.
For assay [4], the system named is HCT-15.
Assay [5] concerns HL-60.
Assay [6] deals with IGROV-1.
The test system of assay [7] is K562.
The subject of assay [8] is MDA-MB-435.
Assay [9] deals with MDA-N.
Assay [10] relates to NCI-H23.
The test system of assay [11] is OVCAR-3.
The test system of assay [12] is OVCAR-4.
Assay [13] concerns OVCAR-5.
Assay [14] deals with PC-3.
Assay [15] deals with SK-MEL-2.
In assay [16] the test system is SR.
For assay [17], the system named is SW-620.
Assay [18] relates to TK-10.
Assay [19] concerns UACC-62.
Assay [20] has as its system UO-31.

Regarding `C=C1CCc2ccccc2C1=O`, the GI50 (commonly the concentration at which growth is held to half of that of the control) in assay [1] is > 100 µM (inactive); in assay [2], > 100 µM (inactive); in [3], > 100 µM (inactive); in [4], greater than 100 µM; in assay [5] it was > 100 µM (inactive); in assay [6], > 100 µM (inactive). Moreover, the GI50 was 37.9 µM (inactive) in assay [7]; 29.3 µM (inactive) in assay [8]; 43.1 µM (inactive) in assay [9]; > 100 µM (inactive) in [10]; > 100 µM (inactive) in assay [11]; > 100 µM (inactive) in [12]. The GI50 in assay [13] is > 100 µM (inactive); in assay [14], > 100 µM (inactive); in [15], > 100 µM (inactive); in assay [16], 19.2 µM (inactive); in [17] it was > 100 µM (inactive); in assay [18] it was > 100 µM (inactive). Also, the GI50 in assay [19] and in assay [20] was > 100 µM (inactive) throughout.

`C[C@]12CC[C@@H]3c4ccc(OC(=O)c5ccccc5)cc4CC[C@H]3[C@@H]1CC[C@@H]2Oc1c2ccccc2nc2ccccc12`: the GI50 is 17.4 µM (inactive) in [1]; 37 µM (inactive) in [2]; 1.52 µM (inactive) in assay [3]; 9.73 µM in assay [4]; 2.95 µM (inactive) in assay [5]; 12.5 µM (inactive) in assay [6]. For the same compound, the GI50 is 6.38 µM (inactive) in assay [7]; 5.46 µM (inactive) in [8]; 3.53 µM (inactive) in assay [9]; 12.4 µM (inactive) in [10]; 7.66 µM (inactive) in [11]; 15.8 µM (inactive) in assay [12]. Moreover, the GI50 was 16.6 µM (inactive) in assay [13]; 8.93 µM (inactive) in [14]; 16.2 µM (inactive) in assay [15]; 10 µM (inactive) in assay [16]; 16.9 µM (inactive) in assay [17]; 17.2 µM (inactive) in [18]. Also, the GI50 was 17.7 µM (inactive) in assay [19] and 13.2 µM (inactive) in [20].

For `Cc1cn(CCCCCCOC(=O)NC(CCCNC(=N)N)C(=O)O)c(=O)[nH]c1=O` (stereo not given), the GI50 in [1] is > 100 µM (inactive); in assay [2] it was > 100 µM (inactive); in assay [3] it was > 100 µM (inactive); in assay [4] it was greater than 100 µM; in assay [5], > 100 µM (inactive); in assay [6], > 100 µM (inactive). Also, the GI50 in [7], in assay [8], in assay [9], in assay [10], in assay [11] and in [12] was > 100 µM (inactive) each time. The GI50 in assay [13], in assay [14], in assay [15], in assay [16], in assay [17] and in assay [18] was > 100 µM (inactive) in each case. Also, the GI50 in assay [19] and in assay [20] was > 100 µM (inactive) each time.

With `O=C(O)C12C3C4(C(=O)O)C1C1(C(=O)O)C2C3(C(=O)O)C41` (stereo not given), the GI50 was > 100 µM (inactive) in [1]; > 100 µM (inactive) in assay [2]; > 100 µM (inactive) in assay [3]; greater than 100 µM in [4]; > 100 µM (inactive) in assay [5]; > 100 µM (inactive) in assay [6]. The GI50 in assay [7] is < 0.01 µM (active); in assay [8], > 100 µM (inactive); in assay [9], > 100 µM (inactive); in assay [10], > 100 µM (inactive); in [11], > 100 µM (inactive); in [12], > 100 µM (inactive). The GI50 in assay [13], in [14], in assay [15], in assay [16], in [17] and in assay [18] was > 100 µM (inactive) each time. Also, the GI50 in assay [19] and in [20] was > 100 µM (inactive) in each case.
